The record followed here is article PMC10331583, “Control of fibrosis with enhanced safety via asymmetric inhibition of prolyl‐tRNA synthetase 1” (EMBO Molecular Medicine, 2023).

Data set [1] concerns WI‐26 VA4 cells stably expressing EV (empty vector). The following applies: human, 72 h.
Data set [2] has as its system WI‐26 VA4 cells stably expressing PARS1 FA/EA/RL mutant. The following applies: human, 72 h.
The nature of the next data set: in vitro. The following applies: human, Cytotoxicity.
Setting [3] is: % of control (single replicates, Experiment #1-#4).

Turning to `O=C(CC1NCCCC1O)Cn1cnc2cc(Br)c(Cl)cc2c1=O` (stereo not shown) [HF, Halofuginone, reference compound], in data set [1], the “Cytotoxicity HillSlope (best-fit value)” value is -0.8001 and the “Cytotoxicity LogIC50 (best-fit value)” value was found to be 1.811. In data set [2], the “Cytotoxicity HillSlope (best-fit value)” value is -0.8245 and the “Cytotoxicity LogIC50 (best-fit value)” value was 1.805. In the data set “in vitro” (setting [3]), the activity at 72 h, 0.001 µM is 107%; the activity at 72 h, 0.01 µM is 96.3%; the activity at 72 h, 0.03 µM was 71.4%; the activity at 72 h, 0.3 µM is 34.8%. Also, in “in vitro” (% of control, average), the activity at 72 h, 0.001 µM stood at 106%; the activity at 72 h, 0.003 µM came out at 109%; the activity at 72 h, 0.03 µM is 76.1%; the activity at 72 h, 0.1 µM worked out at 41.8%. In addition, the activity at 72 h, 1 µM in the data set “in vitro” (% of control, average) turned out to be 20%.
